Assay results as given in PMC5856786, “A DHODH inhibitor increases p53 synthesis and enhances tumor cell killing by p53 degradation blockage” (Nature Communications, 2018).
Structures can show the parent of a compound that is named as a salt.

Molecular target: recombinant human DHODH (Homo sapiens, UniProt Q02127)
Assay: Endpoint DHODH enzyme assay (coenzyme Q10, DCIP)
Type: biochemical
Set-up: purchased Prospecbio ENZ-642
Details: compound at 10 µM
Description: In Supplementary Tables 5 and 6, endpoint assays were performed with 10 nM recombinant human DHODH (#ENZ-642, Prospecbio). The reaction mixture consisted of 624.6 µM DL-dihydroorotic acid, 66.4 µM coenzyme Q10, 66.4 µM 2,6-dichlorophenolindophenol sodium salt (DCIP) (all reagents purchased from Sigma-Aldrich) in enzyme buffer (50 mM Tris-HCl, pH 8.0, 0.1% Triton X-100, 150 mM KCl). Loss in absorbance by DCIP was measured at 595 nm after incubation at RT for 60 min.

[1] = Supplementary Table 5, 20,000 compound library
[2] = Supplementary Table 6, 30,000 compound library

Sequence of recombinant human DHODH (Q02127 31-395 limits assumed): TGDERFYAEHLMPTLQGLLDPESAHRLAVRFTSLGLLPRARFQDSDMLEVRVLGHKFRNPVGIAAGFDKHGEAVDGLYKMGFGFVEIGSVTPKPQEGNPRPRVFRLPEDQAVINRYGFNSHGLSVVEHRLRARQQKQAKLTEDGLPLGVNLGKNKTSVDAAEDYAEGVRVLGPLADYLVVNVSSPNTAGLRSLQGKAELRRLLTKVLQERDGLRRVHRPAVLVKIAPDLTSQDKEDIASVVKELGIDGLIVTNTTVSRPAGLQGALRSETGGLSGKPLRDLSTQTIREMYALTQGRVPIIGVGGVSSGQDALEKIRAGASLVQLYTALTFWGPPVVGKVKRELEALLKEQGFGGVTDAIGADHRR

| remaining activity at 10 µM [2] [%] | Compound | also measured |
| --- | --- | --- |
| – | COc1cccc(-c2noc(-c3ccc(N4C[C@H]5CC[C@H]4C5)nc3)n2)c1OC (relative stereo) [compound 75901793, (1S*,4S*)-2-{5-[3-(2,3-dimethoxyphenyl)-1,2,4-oxadiazol-5-yl]-2-pyridinyl}-2-azabicyclo[2.2.1]heptane] | remaining DHODH activity (%) Average [1]: 5.94% |
| 19.2 | Cc1cccn(CC(=O)c2ccc(-c3ccccc3)cc2)c1=N [compound 5120580, 1-(4-biphenylyl)-2-(2-imino-3-methyl-1(2H)-pyridinyl)ethanone hydrobromide] | – |
| – | O=C(Nc1ccc2ccccc2c1)C12CC3CC(CC(C3)C1)C2 [compound 5135537, N-2-naphthyl-1-adamantanecarboxamide] | remaining activity at 10 µM [1]: 32% |
| 101 | COCCOC(=O)Nc1nc2sc3c(c2s1)CCCC3 [compound 5175570, 2-methoxyethyl 5,6,7,8-tetrahydro[1]benzothieno[2,3-d][1,3]thiazol-2-ylcarbamate] | – |
| 96.8 | CCN(CC)c1ccc2cc(-c3nc4ccccc4n3C)c(=O)oc2c1 [compound 5213776, 7-(diethylamino)-3-(1-methyl-1H-benzimidazol-2-yl)-2H-chromen-2-one] | – |
| 92.1 | CCN(CC)c1ccc2cc(-c3nc4ccccc4o3)c(=O)oc2c1 [compound 5213777, 3-(1,3-benzoxazol-2-yl)-7-(diethylamino)-2H-chromen-2-one] | – |
| 100 | COc1ccccc1NC1=CC(=O)CC(c2ccccc2)C1 (stereo not shown) [compound 5220809, 3-[(2-methoxyphenyl)amino]-5-phenyl-2-cyclohexen-1-one] | – |
| 43.5 | O=C1NC(c2ccc3ccccc3c2)Nc2sc3c(c21)CCCC3 (stereo not shown) [compound 5232020, 2-(2-naphthyl)-2,3,5,6,7,8-hexahydro[1]benzothieno[2,3-d]pyrimidin-4(1H)-one] | – |
| – | O=C1C(O)=C(c2ccc(-c3ccccc3)cc2)C(=O)c2ccccc21 [compound 5248918, 2-(4-biphenylyl)-3-hydroxynaphthoquinone] | remaining DHODH activity (%) Average [2]: -1.54% |
| 100 | O=C(NN=Cc1ccc(Br)cc1)C1COc2ccccc2O1 (stereo not shown) [compound 5249701, N'-(4-bromobenzylidene)-2,3-dihydro-1,4-benzodioxine-2-carbohydrazide] | – |
| – | CCOC(=O)c1c(-c2ccccc2)csc1NC(=O)c1cc(OC)c(OC)c(OC)c1 [compound 5264537, ethyl 4-phenyl-2-[(3,4,5-trimethoxybenzoyl)amino]-3-thiophenecarboxylate] | remaining activity at 10 µM [1]: 82.9% |
| 55.7 | Brc1ccc2[nH]c3c(c2c1)CCCC3NCCc1ccccc1 (stereo not shown) [compound 5265927, 6-bromo-N-(2-phenylethyl)-2,3,4,9-tetrahydro-1H-carbazol-1-amine hydrochloride] | – |
| – | Oc1ccccc1C=Nc1ccc2cc3ccc(N=Cc4ccccc4O)cc3nc2c1 [compound 5267938, 2,2'-[3,6-acridinediylbis(nitrilomethylylidene)]diphenol] | remaining DHODH activity (%) Average [2]: 98.57% |
| 97.5 | COc1ccccc1N1CCN(C(=O)c2ccc(Cl)c([N+](=O)[O-])c2)CC1 [compound 5276937, 1-(4-chloro-3-nitrobenzoyl)-4-(2-methoxyphenyl)piperazine] | – |
| – | COc1ccccc1N1C(=O)C(=C2C(=O)Nc3ccc(Br)cc32)SC1=S [compound 5284467, 5-bromo-3-[3-(2-methoxyphenyl)-4-oxo-2-thioxo-1,3-thiazolidin-5-ylidene]-1,3-dihydro-2H-indol-2-one] | remaining DHODH activity (%) Average [2]: 98.93% |
| 100 | Nc1cccc2c1C(=O)c1cccc(NC(=O)c3ccccc3)c1C2=O [compound 5301107, N-(5-amino-9,10-dioxo-9,10-dihydro-1-anthracenyl)benzamide] | – |
| 12.6 | Cc1ccc2[nH]c3c(c2c1)CCCC3NC1CCCCC1 (stereo not shown) [compound 5303009, N-cyclohexyl-6-methyl-2,3,4,9-tetrahydro-1H-carbazol-1-amine] | – |
| – | O=C(NN=CC(Br)=Cc1ccccc1)c1n[nH]c2c1CCC2 [compound 5313702, N'-(2-bromo-3-phenyl-2-propen-1-ylidene)-1,4,5,6-tetrahydrocyclopenta[c]pyrazole-3-carbohydrazide] | remaining DHODH activity (%) Average [2]: 92.49% |
| 101 | Cc1ccccc1C=Nc1ccccc1C(N)=O [compound 5320101, 2-[(2-methylbenzylidene)amino]benzamide] | – |
| 97.6 | NC(=O)c1ccccc1N=Cc1cccc(Cl)c1 [compound 5321611, 2-[(3-chlorobenzylidene)amino]benzamide] | – |
| 98.8 | O=c1c(Cl)c(Cl)cnn1-c1ccc(Cl)c(C(F)(F)F)c1 [compound 5344759, 4,5-dichloro-2-[4-chloro-3-(trifluoromethyl)phenyl]-3(2H)-pyridazinone] | – |

| remaining activity at 10 µM [2] [%] | Compound | also measured |
| --- | --- | --- |
| 8.96 | O=C(NN=Cc1ccc(O)cc1)c1cc(-c2ccccc2)nc2ccccc12 [compound 5347717, N'-(4-hydroxybenzylidene)-2-phenyl-4-quinolinecarbohydrazide] | – |
| – | O=C(Nc1cc(Cl)ccc1Cl)c1ccc([N+](=O)[O-])o1 [compound 5351342, N-(2,5-dichlorophenyl)-5-nitro-2-furamide] | remaining activity at 10 µM [1]: 90.4% |
| 99.2 | COc1ccc(S(=O)(=O)Nc2ccc(I)cc2C)cc1 [compound 5351654, N-(4-iodo-2-methylphenyl)-4-methoxybenzenesulfonamide] | – |
| – | CCc1ccc(NC(=O)c2ccc([N+](=O)[O-])o2)cc1 [compound 5351720, N-(4-ethylphenyl)-5-nitro-2-furamide] | remaining activity at 10 µM [1]: 73.5% |
| – | COc1ccc(Cl)cc1NC(=O)c1ccc([N+](=O)[O-])o1 [compound 5356839, N-(5-chloro-2-methoxyphenyl)-5-nitro-2-furamide] | remaining activity at 10 µM [1]: 83.8% |
| 101 | c1ccc(NN=C2CCc3ccccc3N2)cc1 [compound 5373649, 3,4-dihydro-2(1H)-quinolinone phenylhydrazone hydrochloride] | – |
| 58.2 | NN=C1CCCc2c1[nH]c1ccc(Br)cc21 [compound 5373779, 6-bromo-2,3,4,9-tetrahydro-1H-carbazol-1-one hydrazone] | – |
| 100 | Cc1ccc(C=NNC(=O)c2c(C)nc3ccc(Cl)cn23)cc1 [compound 5378429, 6-chloro-2-methyl-N'-(4-methylbenzylidene)imidazo[1,2-a]pyridine-3-carbohydrazide] | – |
| 98.4 | Cc1ccc(OCC(=O)NN=Cc2ccc(-c3ccc(Br)cc3)o2)cc1 [compound 5472837, N'-{[5-(4-bromophenyl)-2-furyl]methylene}-2-(4-methylphenoxy)acetohydrazide] | – |
| 98 | O=C(NN=Cc1cccc(Oc2ccccc2)c1)c1cccc([N+](=O)[O-])c1 [compound 5545710, 3-nitro-N'-(3-phenoxybenzylidene)benzohydrazide] | – |
| 78.1 | Cc1ccc(C=NNC(=O)COc2ccccc2Br)c(C)c1 [compound 5554099, 2-(2-bromophenoxy)-N'-(2,4-dimethylbenzylidene)acetohydrazide] | – |
| 42.5 | COc1ccc(CNc2ccc(Br)c(C)c2)cc1Br [compound 5561538, (3-bromo-4-methoxybenzyl)(4-bromo-3-methylphenyl)amine] | – |
| 98.4 | O=c1[nH]c(C=Cc2ccccc2)nc2sc3c(c12)CCCC3 [compound 5625039, 2-(2-phenylvinyl)-5,6,7,8-tetrahydro[1]benzothieno[2,3-d]pyrimidin-4(3H)-one] | – |
| 68.4 | Cn1c2ccccc2n2c(C(O)C(Cl)(Cl)Cl)c(-c3ccccc3)nc12 (stereo not shown) [compound 5650027, 2,2,2-trichloro-1-(9-methyl-2-phenyl-9H-imidazo[1,2-a]benzimidazol-3-yl)ethanol] | – |
| – | Cc1ccc2[nH]c3c(c2c1)CCCC3NC=C1C(=O)CC(C)(C)CC1=O (stereo not shown) [compound 5666613, 5,5-dimethyl-2-{[(6-methyl-2,3,4,9-tetrahydro-1H-carbazol-1-yl)amino]methylene}-1,3-cyclohexanedione] | remaining DHODH activity (%) Average [2]: 92.20% |
| 48.5 | O=C1Nc2ccccc2C1=CNC1CCCc2c1[nH]c1ccccc21 (stereo not shown) [compound 5666718, 3-[(2,3,4,9-tetrahydro-1H-carbazol-1-ylamino)methylene]-1,3-dihydro-2H-indol-2-one] | – |
| 71 | O=C(Nc1nc2ccccc2s1)C1c2ccccc2Oc2ccccc21 [compound 5704541, N-1,3-benzothiazol-2-yl-9H-xanthene-9-carboxamide] | – |
| 66.1 | COc1ccc2c(c1)c(C=Cc1nc3ccccc3c(=O)[nH]1)c(C)n2C [compound 5705453, 2-[2-(5-methoxy-1,2-dimethyl-1H-indol-3-yl)vinyl]-4(3H)-quinazolinone] | – |
| 82.5 | CN(C)c1ccc(C=Cc2nc3ccccc3c(=O)[nH]2)cc1 [compound 5705506, 2-{2-[4-(dimethylamino)phenyl]vinyl}-4(3H)-quinazolinone] | – |
| 96.8 | CCOc1ccc(S(=O)(=O)Nc2cc(Br)c3oc(C)c(C(C)=O)c3c2)cc1 [compound 5754791, N-(3-acetyl-7-bromo-2-methyl-1-benzofuran-5-yl)-4-ethoxybenzenesulfonamide] | – |
| 59.6 | O=[N+]([O-])c1ccc2[nH]c3c(c2c1)CCCC3NC1CCN(CCc2ccccc2)CC1 (stereo not shown) [compound 5781441, 6-nitro-N-[1-(2-phenylethyl)-4-piperidinyl]-2,3,4,9-tetrahydro-1H-carbazol-1-amine] | – |

| Compound | remaining activity at 10 µM [2] [%] | also measured |
| --- | --- | --- |
| COc1ccc(CC(C)NC2CCCc3c2[nH]c2ccc([N+](=O)[O-])cc32)cc1OC (stereo not shown) [compound 5781442, N-[2-(3,4-dimethoxyphenyl)-1-methylethyl]-6-nitro-2,3,4,9-tetrahydro-1H-carbazol-1-amine] | 78.3 | – |
